Source: patent US20190262453A1, “DESIGN AND COMPOSITION OF CELL-STABILIZED PHARMACEUTICAL FORMULATIONS” (THE REGENTS OF THE UNIVERSITY OF MICHIGAN, priority 2016, published 2019)

Test system: peritoneal macrophages
Assay: Peritoneal lavage: cell counts and CLDI-containing cells
Format: in vivo, Mice
Settings: PBS-CFZ fed group, peritoneal cavity
Protocol: In order to deplete tissue macrophages, mice were treated with liposomes containing either 7 mg/mL clodronate or phosphate-buffered saline (PBS) (FormuMax Scientific Inc., Sunnyvale, Calif.) for up to six weeks. Liposomes were injected IP to eliminate macrophages of the liver, spleen, and peritoneal cavity. Mice were initially treated with 200 μL of liposomes, followed by 100 μL injections twice per week to ensure continual depletion of macrophages. Mice were fed CFZ or a control diet continuously for a four week period. Following two weeks of feeding, liposome treatment began for two weeks. After completing four weeks of feeding and two weeks of liposome treatment, the mice were sacrificed and tissues were collected. Following euthanasia, a small incision was made in the lower abdomen. […] The peritoneal lavage was centrifuged for 10 min at 400×g, 4° C,and then resuspended in DMEM media (Life Technologies). The cells were then plated onto 4 or 8 chamber coverglass (#1.5, Lab-Tek II, Nunc, Rochester, N.Y.) for imaging. The cells were allowed to attach overnight and then washed with media.

Compound: CC(C)N=c1cc2n(-c3ccc(Cl)cc3)c3ccccc3nc-2cc1Nc1ccc(Cl)cc1 [CFZ, 3-(p-chloroanilino)-10-(p-chlorophenyl)-2, 10-dihydro-2-isopropyliminophenazine]
- macrophages containing at least one intracellular CLDI: approximately 50%
